How the values were obtained:
SMARCA2 = SMARCA2 (Homo sapiens, UniProt P51531); test: HiBiT assay for protein degradation, Hela SMARCA2-HiBiT cells (A series); assay type: cell-based; design: Hela cells were genetically modified via CRISPR/Cas9 to fuse HiBiT to the carboxy terminus of SMARCA2; host or cells: HeLa (CRISPR/Cas9 HiBiT knock-in); settings: Hela SMARCA2-HiBiT cells, 24 hours treatment; for DC50: read-out: SMARC A2 Hela HiBit DC50; for Dmax: read-out: SMARC A2 Hela HiBit Dmax (%);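 on SMARC A2 Hela HiBit Dmax (%): 24 h compound treatment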
How it was run: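 SMARCA2 degradation was measured in HeLa cells whose endogenous SMARCA2 carries a carboxy-terminal HiBiT tag introduced by CRISPR/Cas9 (Promega CS302365). Cells were maintained in DMEM with FBS and penicillin-streptomycin. SMARCA2 levels were read at the end of the experiment by Nano-Glo® HiBiT lytic luminescence (Promega N3050) and analyzed in GraphPad Prism.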

SMARCA4 = SMARCA4 (Homo sapiens, UniProt P51532); test: HiBiT assay for protein degradation, Hela SMARCA4-HiBiT cells (A series); assay type: cell-based; design: fuse HiBiT to the carboxy terminus of SMARCA2 (Promega CS302365) or SMARCA4 (Promega CS3023225); host or cells: HeLa (CRISPR/Cas9 HiBiT knock-in); settings: Hela SMARCA4-HiBiT cells, 24 hours treatment; for DC50: read-out: SMARC A4 Hela HiBit DC50; for Dmax: read-out: SMARC A4 Hela HiBit Dmax
How it was run: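 SMARCA4 degradation was measured in HeLa cells in which HiBiT had been knocked into the SMARCA4 carboxy terminus via CRISPR/Cas9 (Promega CS3023225). Cells were maintained in DMEM with FBS and penicillin-streptomycin. At the end of treatment, SMARCA4 levels were read by lytic HiBiT luminescence (Nano-Glo®, Promega N3050), and data were analyzed with GraphPad Prism.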

Chain of SMARCA4 (P51532 whole entry): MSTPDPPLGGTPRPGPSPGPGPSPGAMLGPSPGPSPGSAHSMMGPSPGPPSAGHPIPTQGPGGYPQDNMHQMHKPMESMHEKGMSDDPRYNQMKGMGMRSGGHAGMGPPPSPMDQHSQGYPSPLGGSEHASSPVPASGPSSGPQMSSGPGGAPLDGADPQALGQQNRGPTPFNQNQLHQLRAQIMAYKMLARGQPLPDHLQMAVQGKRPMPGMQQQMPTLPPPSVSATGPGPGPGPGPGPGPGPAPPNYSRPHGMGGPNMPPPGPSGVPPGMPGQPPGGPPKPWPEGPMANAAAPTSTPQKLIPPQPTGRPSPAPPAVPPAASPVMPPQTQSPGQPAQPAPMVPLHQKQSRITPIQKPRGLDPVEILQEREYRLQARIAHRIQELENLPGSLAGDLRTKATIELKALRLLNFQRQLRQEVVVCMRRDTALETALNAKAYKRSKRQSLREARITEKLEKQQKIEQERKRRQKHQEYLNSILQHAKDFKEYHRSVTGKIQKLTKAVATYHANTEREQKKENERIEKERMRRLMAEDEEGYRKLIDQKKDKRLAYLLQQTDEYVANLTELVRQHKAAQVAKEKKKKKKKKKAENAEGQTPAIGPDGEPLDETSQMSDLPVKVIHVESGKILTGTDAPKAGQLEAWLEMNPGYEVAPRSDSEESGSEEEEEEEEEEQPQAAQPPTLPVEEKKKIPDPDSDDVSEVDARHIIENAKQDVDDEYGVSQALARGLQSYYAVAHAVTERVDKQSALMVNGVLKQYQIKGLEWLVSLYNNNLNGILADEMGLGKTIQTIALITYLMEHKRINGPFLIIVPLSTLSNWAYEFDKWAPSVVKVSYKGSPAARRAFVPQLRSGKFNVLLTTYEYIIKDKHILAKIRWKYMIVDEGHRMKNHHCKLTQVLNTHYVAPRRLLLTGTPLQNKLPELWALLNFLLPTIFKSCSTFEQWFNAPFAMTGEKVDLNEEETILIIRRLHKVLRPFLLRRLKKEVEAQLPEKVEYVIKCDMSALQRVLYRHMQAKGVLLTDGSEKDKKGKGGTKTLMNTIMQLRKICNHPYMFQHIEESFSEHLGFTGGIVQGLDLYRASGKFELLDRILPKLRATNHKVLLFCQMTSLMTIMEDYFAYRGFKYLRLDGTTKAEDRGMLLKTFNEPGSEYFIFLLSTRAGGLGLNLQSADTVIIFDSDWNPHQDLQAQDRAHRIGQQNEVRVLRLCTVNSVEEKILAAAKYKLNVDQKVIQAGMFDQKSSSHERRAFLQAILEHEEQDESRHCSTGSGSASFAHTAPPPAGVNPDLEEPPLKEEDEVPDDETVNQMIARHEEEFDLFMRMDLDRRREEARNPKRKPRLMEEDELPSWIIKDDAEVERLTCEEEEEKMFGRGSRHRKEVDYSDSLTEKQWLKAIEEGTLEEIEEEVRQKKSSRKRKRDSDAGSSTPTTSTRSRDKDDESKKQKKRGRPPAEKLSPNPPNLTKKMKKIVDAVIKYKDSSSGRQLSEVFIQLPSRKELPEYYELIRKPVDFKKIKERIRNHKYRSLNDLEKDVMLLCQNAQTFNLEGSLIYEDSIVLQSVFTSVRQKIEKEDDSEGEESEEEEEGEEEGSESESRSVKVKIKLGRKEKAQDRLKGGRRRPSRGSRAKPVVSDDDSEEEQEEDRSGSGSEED
Chain of SMARCA2 (P51531 whole entry): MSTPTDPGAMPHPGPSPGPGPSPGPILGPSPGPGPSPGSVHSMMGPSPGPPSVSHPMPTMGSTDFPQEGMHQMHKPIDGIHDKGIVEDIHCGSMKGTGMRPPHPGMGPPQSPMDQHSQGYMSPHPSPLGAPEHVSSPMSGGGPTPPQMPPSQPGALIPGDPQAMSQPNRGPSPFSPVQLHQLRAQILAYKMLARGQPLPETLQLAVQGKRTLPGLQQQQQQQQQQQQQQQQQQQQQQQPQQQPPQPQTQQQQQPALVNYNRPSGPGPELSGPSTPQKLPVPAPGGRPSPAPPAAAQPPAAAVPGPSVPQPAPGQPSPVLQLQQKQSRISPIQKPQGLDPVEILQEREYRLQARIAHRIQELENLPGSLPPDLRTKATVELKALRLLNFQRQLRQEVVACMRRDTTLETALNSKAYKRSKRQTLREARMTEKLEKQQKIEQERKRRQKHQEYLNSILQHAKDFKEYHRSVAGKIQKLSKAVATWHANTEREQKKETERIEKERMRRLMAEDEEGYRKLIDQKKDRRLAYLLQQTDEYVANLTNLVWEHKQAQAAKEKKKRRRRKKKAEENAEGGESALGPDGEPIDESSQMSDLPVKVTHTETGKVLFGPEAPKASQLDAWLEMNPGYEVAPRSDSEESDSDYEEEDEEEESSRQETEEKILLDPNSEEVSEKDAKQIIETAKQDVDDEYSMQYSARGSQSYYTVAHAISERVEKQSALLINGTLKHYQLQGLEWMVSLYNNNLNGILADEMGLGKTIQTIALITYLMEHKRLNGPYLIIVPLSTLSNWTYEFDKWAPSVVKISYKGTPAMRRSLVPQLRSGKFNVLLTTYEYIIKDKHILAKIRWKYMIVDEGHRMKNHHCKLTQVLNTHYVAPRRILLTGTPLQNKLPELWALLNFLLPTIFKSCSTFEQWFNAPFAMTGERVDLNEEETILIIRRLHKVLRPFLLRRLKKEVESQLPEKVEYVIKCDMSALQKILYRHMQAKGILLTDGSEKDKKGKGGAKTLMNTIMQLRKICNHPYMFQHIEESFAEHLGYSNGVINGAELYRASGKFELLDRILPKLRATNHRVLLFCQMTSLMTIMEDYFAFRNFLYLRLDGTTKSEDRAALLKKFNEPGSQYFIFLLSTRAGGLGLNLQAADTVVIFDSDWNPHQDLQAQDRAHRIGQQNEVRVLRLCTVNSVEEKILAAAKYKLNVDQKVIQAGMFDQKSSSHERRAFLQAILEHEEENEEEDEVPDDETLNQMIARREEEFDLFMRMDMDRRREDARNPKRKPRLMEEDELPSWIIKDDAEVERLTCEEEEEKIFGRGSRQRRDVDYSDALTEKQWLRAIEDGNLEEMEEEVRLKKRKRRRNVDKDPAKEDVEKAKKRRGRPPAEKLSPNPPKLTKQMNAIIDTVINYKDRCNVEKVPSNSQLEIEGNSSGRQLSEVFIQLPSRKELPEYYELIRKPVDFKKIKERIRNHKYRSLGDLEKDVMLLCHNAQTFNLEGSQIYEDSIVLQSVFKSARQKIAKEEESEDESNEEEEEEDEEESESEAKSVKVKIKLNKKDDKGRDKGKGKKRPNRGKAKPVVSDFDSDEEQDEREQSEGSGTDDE

Compound | DC50 (SMARCA2) [µM] | Dmax (SMARCA2) [%] | DC50 (SMARCA4) [µM] | Dmax (SMARCA4) [%] | SMARC A4 Hela HiBit DC50(nM) (SMARCA4)
Cc1ncsc1-c1ccc([C@H](Cn2cc(CN3CCC(c4ccc5c(c4)-n4c(nc(=O)c6c(Br)cccc64)C54CCCCC4)CC3)nn2)NC(=O)[C@@H]2C[C@@H](O)CN2C(=O)[C@@H](n2cc(C3CC3)nn2)C(C)(C)C)cc1 [Compound A114, (2S,4R)—N—((R)-2-(4-((4-(4′-bromo-5′-oxo-5′H-spiro[cyclohexane-1,7′-indolo[1,2-a]quinazolin]-10′-yl)piperidin-1-yl)methyl)-1H-1,2,3-triazol-1-yl)-1-(4-(4-methylthiazol-5-yl)phenyl)ethyl)-1-((S)-2-(4-cyclopropyl-1H-1,2,3-triazol-1-yl)-3,3-dimethylbutanoyl)-4-hydroxypyrrolidine-2-carboxamide] | 0.01 to 0.1 | 70 to 90 | 0.1 to 1 | 70 to 90 | 
Cc1ncsc1-c1ccc([C@H](Cn2cc(CN3CCC(c4ccc5c(c4)C4(CCCCC4)c4nc(=O)c6c(Br)cccc6n4-5)CC3)nn2)NC(=O)[C@@H]2C[C@@H](O)CN2C(=O)[C@@H](n2cc(C3CC3)nn2)C(C)(C)C)cc1 [Compound A115, (2S,4R)—N—((R)-2-(4-((4-(4′-bromo-5′-oxo-5′H-spiro[cyclohexane-1,7′-indolo[1,2-a]quinazolin]-9′-yl)piperidin-1-yl)methyl)-1H-1,2,3-triazol-1-yl)-1-(4-(4-methylthiazol-5-yl)phenyl)ethyl)-1-((S)-2-(4-cyclopropyl-1H-1,2,3-triazol-1-yl)-3,3-dimethylbutanoyl)-4-hydroxypyrrolidine-2-carboxamide] | 0.01 to 0.1 | 70 to 90 | 0.01 to 0.1 | > 90 | 
Cc1ncsc1-c1ccc([C@H](CNC(=O)[C@H]2CC[C@H](CN3CCC(c4ccc5c(c4)-n4c(nc(=O)c6c(Br)cccc64)C54CCCCC4)CC3)CC2)NC(=O)[C@@H]2C[C@@H](O)CN2C(=O)[C@@H](n2cc(C3CC3)nn2)C(C)(C)C)cc1 [Compound A116, (2S,4R)—N—((R)-2-((1r,4R)-4-((4-(4′-bromo-5′-oxo-5′H-spiro[cyclohexane-1,7′-indolo[1,2-a]quinazolin]-10′-yl)piperidin-1-yl)methyl)cyclohexane-1-carboxamido)-1-(4-(4-methylthiazol-5-yl)phenyl)ethyl)-1-((S)-2-(4-cyclopropyl-1H-1,2,3-triazol-1-yl)-3,3-dimethylbutanoyl)-4-hydroxypyrrolidine-2-carboxamide] | > 1 | < 50 | > 1 | < 50 | 
Cc1ncsc1-c1ccc([C@H](CNC(=O)[C@H]2CC[C@H](CN3CCC(c4ccc5c(c4)C4(CCCCC4)c4nc(=O)c6c(Br)cccc6n4-5)CC3)CC2)NC(=O)[C@@H]2C[C@@H](O)CN2C(=O)[C@@H](n2cc(C3CC3)nn2)C(C)(C)C)cc1 [Compound A117, (2S,4R)—N—((R)-2-((1r,4R)-4-((4-(4′-bromo-5′-oxo-5′H-spiro[cyclohexane-1,7′-indolo[1,2-a]quinazolin]-9′-yl)piperidin-1-yl)methyl)cyclohexane-1-carboxamido)-1-(4-(4-methylthiazol-5-yl)phenyl)ethyl)-1-((S)-2-(4-cyclopropyl-1H-1,2,3-triazol-1-yl)-3,3-dimethylbutanoyl)-4-hydroxypyrrolidine-2-carboxamide] | > 1 | < 50 | > 1 | < 50 | 
Cc1ncsc1-c1ccc([C@H](CN2CCOCC2)NC(=O)[C@@H]2C[C@@H](O)CN2C(=O)[C@H](C2CCCCC2)n2cc([C@H]3CC[C@H](CN4CCC(c5ccc6c(c5)-n5c(nc(=O)c7c(Br)cccc75)C65CCCCC5)CC4)CC3)nn2)cc1 [Compound A123, (2S,4R)-1-((S)-2-(4-((1r,4S)-4-((4-(4′-bromo-5′-oxo-5′H-spiro[cyclohexane-1,7′-indolo[1,2-a]quinazolin]-10′-yl)piperidin-1-yl)methyl)cyclohexyl)-1H-1,2,3-triazol-1-yl)-2-cyclohexylacetyl)-4-hydroxy-N—((R)-1-(4-(4-methylthiazol-5-yl)phenyl)-2-morpholinoethyl)pyrrolidine-2-carboxamide] | < 0.01 | > 90 | 0.01 to 0.1 | 70 to 90 | 

The next lines start with the values.

DC50 (SMARCA2) [µM] | Dmax (SMARCA2) [%] | DC50 (SMARCA4) [µM] | Dmax (SMARCA4) [%] | SMARC A4 Hela HiBit DC50(nM) (SMARCA4) | Compound
< 0.01 | > 90 | 0.1 to 1 | 50 to 69 |  | Cc1ncsc1-c1ccc([C@H](C)NC(=O)[C@@H]2C[C@@H](O)CN2C(=O)[C@H](C2CCCCC2)n2cc([C@H]3CC[C@H](CN4CCC(c5ccc6c(c5)-n5c(nc(=O)c7c(Cl)cccc75)C65CCCCC5)CC4)CC3)nn2)cc1 [Compound A118, (2S,4R)-1-((S)-2-(4-((1r,4S)-4-((4-(4′-chloro-5′-oxo-5′H-spiro[cyclohexane-1,7′-indolo[1,2-a]quinazolin]-10′-yl)piperidin-1-yl)methyl)cyclohexyl)-1H-1,2,3-triazol-1-yl)-2-cyclohexylacetyl)-4-hydroxy-N—((S)-1-(4-(4-methylthiazol-5-yl)phenyl)ethyl)pyrrolidine-2-carboxamide]
< 0.01 | > 90 | 0.01 to 0.1 | 70 to 90 |  | Cc1ncsc1-c1ccc([C@H](C)NC(=O)[C@@H]2C[C@@H](O)CN2C(=O)[C@H](C2CCCCC2)n2cc([C@H]3CC[C@H](CN4CCC(c5ccc6c(c5)-n5c(nc(=O)c7c(Br)cccc75)C65CCCCC5)CC4)CC3)nn2)cc1 [Compound A119, (2S,4R)-1-((S)-2-(4-((1r,4S)-4-((4-(4′-bromo-5′-oxo-5′H-spiro[cyclohexane-1,7′-indolo[1,2-a]quinazolin]-10′-yl)piperidin-1-yl)methyl)cyclohexyl)-1H-1,2,3-triazol-1-yl)-2-cyclohexylacetyl)-4-hydroxy-N—((S)-1-(4-(4-methylthiazol-5-yl)phenyl)ethyl)pyrrolidine-2-carboxamide]
< 0.01 | > 90 |  | 50 to 69 | No fit | Cc1ncsc1-c1ccc([C@H](C)NC(=O)[C@@H]2C[C@@H](O)CN2C(=O)[C@H](C2CCOCC2)n2cc([C@H]3CC[C@H](CN4CCC(c5ccc6c(c5)-n5c(nc(=O)c7c(Cl)cccc75)C65CCCCC5)CC4)CC3)nn2)cc1 [Compound A120, (2S,4R)-1-((S)-2-(4-((1r,4S)-4-((4-(4′-chloro-5′-oxo-5′H-spiro[cyclohexane-1,7′-indolo[1,2-a]quinazolin]-10′-yl)piperidin-1-yl)methyl)cyclohexyl)-1H-1,2,3-triazol-1-yl)-2-(tetrahydro-2H-pyran-4-yl)acetyl)-4-hydroxy-N—((S)-1-(4-(4-methylthiazol-5-yl)phenyl)ethyl)pyrrolidine-2-carboxamide]
< 0.01 | > 90 |  | 70 to 90 | No fit | Cc1ncsc1-c1ccc([C@H](C)NC(=O)[C@@H]2C[C@@H](O)CN2C(=O)[C@H](C2CCOCC2)n2cc([C@H]3CC[C@H](CN4CCC(c5ccc6c(c5)-n5c(nc(=O)c7c(Br)cccc75)C65CCCCC5)CC4)CC3)nn2)cc1 [Compound A121, (2S,4R)-1-((S)-2-(4-((1r,4S)-4-((4-(4′-bromo-5′-oxo-5′H-spiro[cyclohexane-1,7′-indolo[1,2-a]quinazolin]-10′-yl)piperidin-1-yl)methyl)cyclohexyl)-1H-1,2,3-triazol-1-yl)-2-(tetrahydro-2H-pyran-4-yl)acetyl)-4-hydroxy-N—((S)-1-(4-(4-methylthiazol-5-yl)phenyl)ethyl)pyrrolidine-2-carboxamide]
< 0.01 | > 90 |  | 50 to 69 | No fit | Cc1ncsc1-c1ccc([C@H](CN2CCOCC2)NC(=O)[C@@H]2C[C@@H](O)CN2C(=O)[C@H](C2CCCCC2)n2cc([C@H]3CC[C@H](CN4CCC(c5ccc6c(c5)-n5c(nc(=O)c7c(Cl)cccc75)C65CCCCC5)CC4)CC3)nn2)cc1 [Compound A122, (2S,4R)-1-((S)-2-(4-((1r,4S)-4-((4-(4′-chloro-5′-oxo-5′H-spiro[cyclohexane-1,7′-indolo[1,2-a]quinazolin]-10′-yl)piperidin-1-yl)methyl)cyclohexyl)-1H-1,2,3-triazol-1-yl)-2-cyclohexylacetyl)-4-hydroxy-N—((R)-1-(4-(4-methylthiazol-5-yl)phenyl)-2-morpholinoethyl)pyrrolidine-2-carboxamide]
